Data from ChEMBL document CHEMBL2150910, “Initial Optimization of a New Series of γ-Secretase Modulators Derived from a Triterpene Glycoside” (ACS Med Chem Lett, 2012).

Legend:
Gamma-secretase = assay: Inhibition of gamma-secretase-mediated notch processing in human SUP-T1 cells after 1 hr by luminescent assay; type: cell-based
[1] = Drug level in CD1 mouse brain at 30 mg/kg, po after 8 hrs; type: ADME, organism-based; design: dose 30 mg/kg, route oral; conditions: read-out: Drug uptake
[2] = Metabolic stability in CD1 mouse liver microsomes assessed as compound remaining at 1 uM after 60 mins in presence of NADPH; type: ADME, Microsome; conditions: read-out: Stability
[3] = molecular target: Gamma-secretase (Homo sapiens) (UniProt Q96BI3+Q9NZ42+Q8WW43+P49768+Q92542+P49810); assay: Selectivity ratio of IC50 for gamma-secretase-mediated notch processing in human SUP-T1 cells to IC50 for gamma-secretase-mediated amyloid beta-42 production; type: cell-based
[4] = Ratio of drug level in brain to plasma in CD1 mouse at 30 mg/kg, po; type: ADME, organism-based; design: dose 30 mg/kg, route oral; conditions: read-out: BPR
[5] = AUC in CD1 mouse at 30 mg/kg, po; type: ADME, organism-based; design: dose 30 mg/kg, route oral; conditions: plasma
[6] = Drug level in CD1 mouse brain at 30 mg/kg, po after 24 hrs; type: ADME, organism-based; design: dose 30 mg/kg, route oral; conditions: read-out: Drug uptake
[7] = Plasma concentration in CD1 mouse at 30 mg/kg, po after 24 hrs; type: ADME, organism-based; design: dose 30 mg/kg, route oral
[8] = Inhibition of gamma-secretase assessed as ratio of amyloid beta-40 to amyloid beta-42 production in diluted 2B7 conditioned media after 5 hrs
[9] = Clearance in CD1 mouse at 1 mg/kg, iv; type: ADME, organism-based; design: dose 1 mg/kg, route intravenous; conditions: in vivo
[10] = Drug level in CD1 mouse brain at 30 mg/kg, po after 4 hrs; type: ADME, organism-based; design: dose 30 mg/kg, route oral; conditions: read-out: Drug uptake
[11] = Plasma concentration in CD1 mouse at 30 mg/kg, po after 4 hrs; type: ADME, organism-based; design: dose 30 mg/kg, route oral
[12] = Plasma concentration in CD1 mouse at 30 mg/kg, po after 6 hrs; type: ADME, organism-based; design: dose 30 mg/kg, route oral
[13] = Inhibition of gamma-secretase-mediated amyloid beta-40 production in diluted 2B7 conditioned media after 5 hrs
[14] = Half life in CD1 mouse at 30 mg/kg, po; type: ADME, organism-based; design: dose 30 mg/kg, route oral; conditions: in vivo
[15] = Oral bioavailability in CD1 mouse at 30 mg/kg; type: ADME, organism-based; conditions: in vivo
[16] = Inhibition of gamma-secretase-mediated amyloid beta-42 production in diluted 2B7 conditioned media after 5 hrs
[17] = Volume of distribution in CD1 mouse at 1 mg/kg, iv; type: ADME, organism-based; design: dose 1 mg/kg, route intravenous; conditions: in vivo
[18] = Half life in CD1 mouse at 1 mg/kg, iv; type: ADME, organism-based; design: dose 1 mg/kg, route intravenous; conditions: in vivo
[19] = Inhibition of gamma-secretase-mediated total amyloid beta production in diluted 2B7 conditioned media after 5 hrs
[20] = Drug level in CD1 mouse brain at 30 mg/kg, po after 6 hrs; type: ADME, organism-based; design: dose 30 mg/kg, route oral; conditions: read-out: Drug uptake
[21] = Metabolic stability in CD1 mouse liver microsomes assessed as compound remaining at 1 uM after 60 mins in absence of NADPH; type: ADME, Microsome; conditions: read-out: Stability
[22] = Plasma concentration in CD1 mouse at 30 mg/kg, po after 8 hrs; type: ADME, organism-based; design: dose 30 mg/kg, route oral
[23] = Inhibition of gamma-secretase-mediated amyloid beta-38 production in diluted 2B7 conditioned media after 5 hrs
[24] = Dissociation constant, pKa of the compound; type: physicochemical
[25] = Inhibition of gamma-secretase-mediated amyloid beta-40 production in diluted 2B7 conditioned media at 20 uM after 5 hrs
[26] = Drug level in CD1 mouse brain at 100 mg/kg, po after 6 hrs; type: ADME, organism-based; design: dose 100 mg/kg, route oral; conditions: read-out: Drug uptake
[27] = Plasma concentration in CD1 mouse at 100 mg/kg, po after 2 hrs; type: ADME, organism-based; design: dose 100 mg/kg, route oral
[28] = Plasma concentration in CD1 mouse at 100 mg/kg, po after 4 hrs; type: ADME, organism-based; design: dose 100 mg/kg, route oral
[29] = Drug level in CD1 mouse brain at 100 mg/kg, po after 2 hrs; type: ADME, organism-based; design: dose 100 mg/kg, route oral; conditions: read-out: Drug uptake
[30] = Plasma concentration in CD1 mouse at 100 mg/kg, po after 6 hrs; type: ADME, organism-based; design: dose 100 mg/kg, route oral
[31] = Drug level in CD1 mouse brain at 100 mg/kg, po after 4 hrs; type: ADME, organism-based; design: dose 100 mg/kg, route oral; conditions: read-out: Drug uptake
[32] = Inhibition of gamma-secretase-mediated total amyloid beta production in diluted 2B7 conditioned media at 20 uM after 5 hrs

Row | Structure (SMILES) | IC50 (Gamma-secretase) | remaining at 1 h, 1 µM [2] | Ratio IC50 [3] | Kp [4] | AUC [5] | Ratio [8] | clearance [9] | IC50 [13] | half-life [14] | bioavailability [15] | IC50 [16] | Vd [17] | half-life [18] | remaining at 1 h, 1 µM [21] | IC50 [23] | pKa [24] | other results
1 | CC(=O)O[C@@H]([C@H]1C[C@@H](C)[C@H]2[C@H](O1)[C@H](O)[C@@]1(C)[C@@H]3CC[C@H]4C(C)(C)[C@@H](O[C@H]5CNCCO5)CC[C@@]45C[C@@]35CC[C@]21C)C(C)(C)O | > 4 µM | 25% | > 70 | 1.7 | 3620 ng·h/mL | 25 | 51.7 mL/min/kg | 1.4 µM | 3 h | 37% | 0.055 µM | 12.1 L/kg | 6.5 h | 20% | 0.08 µM | 7.7 | concentration at 8 h [1]: 2260 ng/g; concentration at 24 h [6]: 116 ng/g; concentration at 24 h [7]: 31 ng/mL; concentration at 4 h [10]: 1340 ng/g; concentration at 4 h [11]: 1140 ng/mL; concentration at 6 h [12]: 840 ng/mL; IC50 [19]: 2.4 µM; concentration at 6 h [20]: 1630 ng/g; concentration at 8 h [22]: 857 ng/mL
2 | CC(=O)O[C@@H]([C@H]1C[C@@H](C)[C@H]2[C@H](O1)[C@H](O)[C@@]1(C)[C@@H]3CC[C@H]4C(C)(C)[C@@H](O[C@H]5CN(C6COC6)CCO5)CC[C@@]45C[C@@]35CC[C@]21C)C(C)(C)O | > 20 µM | 1% | > 70 | 0.23 | 1010 ng·h/mL | 52 | 55 mL/min/kg | 14.1 µM | 2.3 h | 11% | 0.17 µM | 0.6 L/kg | 0.3 h | 1% | 0.3 µM | 4.6 | inhibition [25]: 41%; concentration at 6 h [26]: 163 ng/g; concentration at 2 h [27]: 279 ng/mL; concentration at 4 h [28]: 420 ng/mL; concentration at 2 h [29]: 103 ng/g; concentration at 6 h [30]: 453 ng/mL; concentration at 4 h [31]: 185 ng/g; inhibition [32]: 44%
